Results taken from patent US10435399B2, “HDAC6 inhibitory heterocyclic compound” (TAKEDA PHARMACEUTICAL COMPANY LIMITED, priority 2017, dated 2019).

Columns and labels:
TK6 cells = test: γH2AX assay using TK6 cells; format: cell-based, Human; details: 4 hr treatment, up to 100 μM
Description: γH2AX Assay Using TK6 Cells
Human lymphoblasts-derived TK6 cells were treated with the compounds of Examples 489, 512 or 519 at 0, 10, 30 or 100 μmol/L (final concentration) for 4 hr, and the presence or absence of DNA damage was evaluated by measuring phosphorylation of histone H2AX (γH2AX) as a marker. In addition, cytotoxicity after 24-hr treatment was also evaluated.
Exponentially growing TK6 cells were prepared at the cell density of 4×10^5 cells/mL in a culture medium, and was added to a 96-well plate by 100 μL/well. A test compound solution (2% DMSO) prepared using a culture solution, having twice the concentration on the above-mentioned final concentrations, was added thereto by 100 μL/well. This plate was incubated at 37° C., the cell suspension after 4 hr was sampled, and stained using In Vitro MultiFlow™ DNA Damage Kit (Litron), and H2AX phosphorylation level in each nucleus was measured using a flow cytometer and average value was calculated. The H2AX phosphorylation level in the concurrent vehicle control group was also measured and average value was calculated. The rate of change in the H2AX phosphorylation level in the treatment groups relative to that in the control group was calculated, and Dunnett test (significance level: two-tailed 1%) was performed. In addition, the cell suspension after 24 hr treatment was sampled, and the nucleus number was measured, and variation in the nucleus number in the treatment groups relative to that in the concurrent vehicle control group was used as an indicator of cytotoxicity. […] Therefore, the potential of the compounds for DNA strand breakage was judged to be negative under this test condition.

HDAC6 enzyme = molecular target: T1, HDAC6 enzyme (Homo sapiens, UniProt Q9UBN7); test: HDAC6 enzyme inhibitory activity (HDAC-Glo I/II Assay kit); format: biochemical; details: 10 μM, wells without enzyme = 100% inhibition; for inhibition at 10 µM: read-out: HDAC6 inhibitory rate (%) (10 μM)
T1 construct: transducing full length HDAC6 gene into Sf-9 insect cells; GST; purchased SignalChem; host or cells: Sf-9 insect cells
T1 sequence (Q9UBN7 1-1215): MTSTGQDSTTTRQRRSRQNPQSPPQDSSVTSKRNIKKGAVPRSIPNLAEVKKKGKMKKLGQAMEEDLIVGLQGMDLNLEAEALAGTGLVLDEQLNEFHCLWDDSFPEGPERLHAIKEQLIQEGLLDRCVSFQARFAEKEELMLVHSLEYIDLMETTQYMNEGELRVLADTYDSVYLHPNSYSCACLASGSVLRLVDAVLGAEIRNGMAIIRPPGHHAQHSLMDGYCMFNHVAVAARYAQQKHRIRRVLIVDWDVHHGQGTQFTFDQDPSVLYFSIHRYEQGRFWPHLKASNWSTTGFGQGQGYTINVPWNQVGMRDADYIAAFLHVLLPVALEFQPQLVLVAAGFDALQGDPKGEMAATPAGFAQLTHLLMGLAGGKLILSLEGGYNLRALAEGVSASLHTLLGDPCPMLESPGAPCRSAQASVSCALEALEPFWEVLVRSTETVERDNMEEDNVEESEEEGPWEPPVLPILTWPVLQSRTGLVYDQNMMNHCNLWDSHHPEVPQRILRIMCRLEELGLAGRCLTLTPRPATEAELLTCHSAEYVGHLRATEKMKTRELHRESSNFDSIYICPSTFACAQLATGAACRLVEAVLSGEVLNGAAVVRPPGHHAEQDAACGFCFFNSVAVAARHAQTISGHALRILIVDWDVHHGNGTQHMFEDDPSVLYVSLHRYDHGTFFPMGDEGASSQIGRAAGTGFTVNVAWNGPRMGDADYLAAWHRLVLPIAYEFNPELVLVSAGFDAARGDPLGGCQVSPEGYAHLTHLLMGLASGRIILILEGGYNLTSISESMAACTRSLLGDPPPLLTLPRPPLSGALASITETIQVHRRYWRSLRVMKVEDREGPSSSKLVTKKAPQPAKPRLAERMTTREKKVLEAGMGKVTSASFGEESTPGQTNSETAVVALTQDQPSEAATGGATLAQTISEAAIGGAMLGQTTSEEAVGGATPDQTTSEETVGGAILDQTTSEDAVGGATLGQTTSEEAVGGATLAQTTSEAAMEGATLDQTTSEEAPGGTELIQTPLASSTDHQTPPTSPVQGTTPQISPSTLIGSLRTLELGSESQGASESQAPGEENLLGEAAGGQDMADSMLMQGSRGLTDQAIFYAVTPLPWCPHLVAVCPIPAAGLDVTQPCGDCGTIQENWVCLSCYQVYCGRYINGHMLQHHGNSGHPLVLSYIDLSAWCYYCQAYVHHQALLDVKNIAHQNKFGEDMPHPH
In short: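 Sf-9-derived GST-purified full-length HDAC6 + cpd, 60 min RT, 24 mM Tris pH 7.5/0.6 mM glutathione/0.01% Tween-20; add HDAC-Glo substrate-developer, 20 min RT; luminescence. No-enzyme = 100% inhibition.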

bone-marrow cells = test: Micronucleus test in rats (bone-marrow cells); format: in vivo, rats (Crl:CD(SD)); details: rat bone marrow, positive control 20 mg/kg/day
Description: Combination Assay of Micronucleus Test and Comet Assay in Rats […] Bone-marrow smear for micronucleus analysis was prepared as follows. Femur was cut at both ends, and washed with fetal bovine serum (FBS) in a centrifuging tube, and the obtained bone-marrow fluid was centrifuged for 5 min at room temperature. The supernatant was removed, and the cell sediment was suspended in the remaining small amount of the supernatant. A part of the suspension was dropped on a glass slide, and a cover glass was placed thereon to give a bone-marrow smear. The smear was dried well, and fixed with methanol for 5 min. The bone-marrow smear of negative control, that of treatment groups as well as the previously prepared bone-marrow smear of positive control group were encoded, and observed by the blind method. An acridine orange solution (40 μg/mL) was dropped (several drops) to the smear just before observation, and a cover glass was placed thereon. […] In addition, as an index of growth inhibitory effect on bone-marrow cell, total of 500 erythrocytes [immature erythrocytes+mature erythrocytes (ME)] per individual were observed, and immature erythrocyte rate (IE %) relative to the total number of erythrocytes was calculated.

| inhibition at 10 µM (HDAC6 enzyme) [%] | SMILES | also measured |
| --- | --- | --- |
| 100 | CC(F)(F)C(=O)N[C@H]1[C@H](N2Cc3ncc(-c4nnc(C(F)F)o4)cc3C2=O)CCCC1(F)F [Example 598, N-((1S,6R)-6-(3-(5-(difluoromethyl)-1,3,4-oxadiazol-2-yl)-5-oxo-5,7-dihydro-6H-pyrrolo[3,4-b]pyridin-6-yl)-2,2-difluorocyclohexyl)-2,2-difluoropropanamide] | histone H2AX phosphorylation (γH2AX) resulted from DNA strand breakage (TK6 cells): did not induce histone H2AX phosphorylation; potential for DNA strand breakage (judgement) (TK6 cells): negative |
| 96 | O=C1c2cc(-c3nnc(C(F)F)o3)cnc2CN1[C@@H]1COCC[C@H]1Oc1ccc(F)cc1F [Example 655, 1,5-anhydro-2,4-dideoxy-2-(3-(5-(difluoromethyl)-1,3,4-oxadiazol-2-yl)-5-oxo-5,7-dihydro-6H-pyrrolo[3,4-b]pyridin-6-yl)-3-O-(2,4-difluorophenyl)-threo-pentitol] |  |
|  | O=C1c2cc(-c3nnc(C(F)F)o3)cnc2CN1[C@@H]1COCC[C@H]1Oc1ccc(F)cc1F [Example 656, 1,5-anhydro-2,4-dideoxy-2-(3-(5-(difluoromethyl)-1,3,4-oxadiazol-2-yl)-5-oxo-5,7-dihydro-6H-pyrrolo[3,4-b]pyridin-6-yl)-3-O-(2,4-difluorophenyl)-threo-pentitol (Optical Isomer)] | HDAC6 inhibitory rate (%) (10 μM) (HDAC6 enzyme): 100% |
| 100 | O=C1c2cc(-c3nnc(C(F)F)o3)cnc2CN1[C@@H]1COCC[C@H]1Oc1cccc(F)c1F [Example 657, 1,5-anhydro-2,4-dideoxy-2-{3-[5-(difluoromethyl)-1,3,4-oxadiazol-2-yl]-5-oxo-5,7-dihydro-6H-pyrrolo[3,4-b]pyridin-6-yl}-3-O-(2,3-difluorophenyl)-threo-pentitol (optical isomer)] |  |
| 99 | O=C1c2cc(-c3nnc(C(F)F)o3)cnc2CN1[C@@H]1COCC[C@H]1Oc1c(F)cccc1F [Example 659, 1,5-anhydro-2,4-dideoxy-2-{3-[5-(difluoromethyl)-1,3,4-oxadiazol-2-yl]-5-oxo-5,7-dihydro-6H-pyrrolo[3,4-b]pyridin-6-yl}-3-O-(2,6-difluorophenyl)-threo-pentitol (optical isomer)] |  |
|  | O=C1c2cc(-c3nnc(C(F)F)o3)cnc2CN1[C@@H]1COCC[C@H]1Oc1c(F)cccc1F [Example 660, 1,5-anhydro-2,4-dideoxy-2-{3-[5-(difluoromethyl)-1,3,4-oxadiazol-2-yl]-5-oxo-5,7-dihydro-6H-pyrrolo[3,4-b]pyridin-6-yl}-3-O-(2,6-difluorophenyl)-threo-pentitol (optical isomer)] | HDAC6 inhibitory rate (%) (10 μM) (HDAC6 enzyme): 100% |
| 99 | O=C1c2cc(-c3nnc(C(F)F)o3)cnc2CN1[C@@H]1CCCC[C@@H]1NC(=O)C(F)(F)C(F)(F)F [Example 661, N-[(1S,2R)-2-{3-[5-(difluoromethyl)-1,3,4-oxadiazol-2-yl]-5-oxo-5,7-dihydro-6H-pyrrolo[3,4-b]pyridin-6-yl}cyclohexyl]-2,2,3,3,3-pentafluoropropanamide] |  |
|  | O=P1(N(CCCl)CCCl)NCCCO1 (stereo not shown) [cyclophosphamide] | micronucleated immature erythrocytes incidences (MNIE %), mean ± SD (bone-marrow cells): ↑2.77 ± 0.88 % |
